Laboratory results: ChEMBL document CHEMBL3860095, “1H-1,2,3-Triazolyl-substituted 1,3,4-oxadiazole derivatives containing structural features of ibuprofen/naproxen: Their synthesis and antibacterial evaluation” (2016)

Tests used:
Format in all cases: functional
Conditions in all cases: read-out: DIZ
[1] = test system: Staphylococcus aureus; experiment: Antibacterial activity against clinical isolates of Staphylococcus aureus at 0.5 mg after overnight incubation by agar well diffusion method
[2] = test system: Bacillus subtilis; experiment: Antibacterial activity against clinical isolates of Bacillus subtilis at 0.5 mg after overnight incubation by agar well diffusion method
[3] = test system: Staphylococcus epidermidis; experiment: Antibacterial activity against clinical isolates of Staphylococcus epidermidis at 0.5 mg after overnight incubation by agar well diffusion method
[4] = test system: Pseudomonas aeruginosa; experiment: Antibacterial activity against clinical isolates of Pseudomonas aeruginosa at 0.5 mg after overnight incubation by agar well diffusion method
[5] = test system: Escherichia coli; experiment: Antibacterial activity against clinical isolates of Escherichia coli at 0.5 mg after overnight incubation by agar well diffusion method
[6] = test system: Klebsiella pneumoniae; experiment: Antibacterial activity against clinical isolates of Klebsiella pneumoniae at 0.5 mg after overnight incubation by agar well diffusion method
[7] = test system: Staphylococcus aureus; experiment: Antibacterial activity against clinical isolates of Staphylococcus aureus at 0.05 mg after overnight incubation by agar well diffusion method
[8] = test system: Pseudomonas aeruginosa; experiment: Antibacterial activity against clinical isolates of Pseudomonas aeruginosa at 0.05 mg after overnight incubation by agar well diffusion method
[9] = test system: Escherichia coli; experiment: Antibacterial activity against clinical isolates of Escherichia coli at 0.05 mg after overnight incubation by agar well diffusion method
[10] = test system: Klebsiella pneumoniae; experiment: Antibacterial activity against clinical isolates of Klebsiella pneumoniae at 0.05 mg after overnight incubation by agar well diffusion method

`COc1ccc2cc([C@H](C)c3nnc(SCc4cn(CC(=O)Nc5c(C)cccc5C)nn4)o3)ccc2c1` showed a zone of inhibition at 500 µg/disc [1] of 13 mm, a zone of inhibition at 500 µg/disc [2] of 15 mm and a zone of inhibition at 500 µg/disc [3] of 12 mm. It also gave a zone of inhibition at 500 µg/disc [4] of 11 mm, a zone of inhibition at 500 µg/disc [5] of 11 mm and a zone of inhibition at 500 µg/disc [6] of 9 mm.

With `COc1ccc2cc([C@H](C)c3nnc(SCc4cn(-c5ccccc5)nn4)o3)ccc2c1` the zone of inhibition at 500 µg/disc [1] was 14 mm, the zone of inhibition at 500 µg/disc [2] was 14 mm and the zone of inhibition at 500 µg/disc [3] was 15 mm. It also gave a zone of inhibition at 500 µg/disc [4] of 12 mm, a zone of inhibition at 500 µg/disc [5] of 13 mm and a zone of inhibition at 500 µg/disc [6] of 12 mm.

Compound `COc1ccc2cc([C@H](C)c3nnc(SCc4cn(CC(=O)Nc5cccc(Cl)c5)nn4)o3)ccc2c1` has a zone of inhibition at 500 µg/disc [1] of 12 mm, a zone of inhibition at 500 µg/disc [2] of 14 mm and a zone of inhibition at 500 µg/disc [3] of 11 mm. It also gave a zone of inhibition at 500 µg/disc [4] of 13 mm, a zone of inhibition at 500 µg/disc [5] of 12 mm and a zone of inhibition at 500 µg/disc [6] of 10 mm.

With `COc1ccc2cc([C@H](C)c3nnc(SCc4cn(CC(=O)Nc5ccccc5Cl)nn4)o3)ccc2c1` the zone of inhibition at 500 µg/disc [1] was 15 mm, the zone of inhibition at 500 µg/disc [2] was 15 mm and the zone of inhibition at 500 µg/disc [3] was 16 mm. For the same compound, the zone of inhibition at 500 µg/disc [4] was 14 mm, the zone of inhibition at 500 µg/disc [5] was 13 mm and the zone of inhibition at 500 µg/disc [6] was 14 mm.

For `COc1ccc2cc([C@H](C)c3nnc(SCc4cn(CC(=O)Nc5ccccc5C)nn4)o3)ccc2c1`, the zone of inhibition at 500 µg/disc [1] was 13 mm, the zone of inhibition at 500 µg/disc [2] was 12 mm and the zone of inhibition at 500 µg/disc [3] was 15 mm. The zone of inhibition at 500 µg/disc [4] was 14 mm, the zone of inhibition at 500 µg/disc [5] was 10 mm and the zone of inhibition at 500 µg/disc [6] was 13 mm.

For `CC(C)Cc1ccc(C(C)c2nnc(SCc3cn(CC(=O)Nc4cccc(Cl)c4)nn3)o2)cc1` (racemic), the zone of inhibition at 500 µg/disc [1] was 14 mm, the zone of inhibition at 500 µg/disc [2] was 12 mm and the zone of inhibition at 500 µg/disc [3] was 13 mm. The zone of inhibition at 500 µg/disc [4] was 15 mm, the zone of inhibition at 500 µg/disc [5] was 12 mm and the zone of inhibition at 500 µg/disc [6] was 11 mm.

In the case of `Cc1ccccc1NC(=O)Cn1cc(CSc2nnc(C(C)c3ccc(CC(C)C)cc3)o2)nn1` (racemic), the zone of inhibition at 500 µg/disc [1] is reported as 13 mm, the zone of inhibition at 500 µg/disc [2] is reported as 11 mm and the zone of inhibition at 500 µg/disc [3] is reported as 13 mm. The zone of inhibition at 500 µg/disc [4] was 14 mm, the zone of inhibition at 500 µg/disc [5] was 13 mm and the zone of inhibition at 500 µg/disc [6] was 13 mm.

`CC(C)Cc1ccc(C(C)c2nnc(SCc3cn(-c4ccccc4)nn3)o2)cc1` (racemic) was tested, and the zone of inhibition at 500 µg/disc [1] was 10 mm, the zone of inhibition at 500 µg/disc [2] was 11 mm and the zone of inhibition at 500 µg/disc [3] was 9 mm. For the same compound, the zone of inhibition at 500 µg/disc [4] was 11 mm, the zone of inhibition at 500 µg/disc [5] was 10 mm and the zone of inhibition at 500 µg/disc [6] was 10 mm.

`CC(C)Cc1ccc(C(C)c2nnc(SCc3cn(CC(=O)Nc4ccccc4[N+](=O)[O-])nn3)o2)cc1` (racemic) gave a zone of inhibition at 500 µg/disc [1] of 11 mm, a zone of inhibition at 500 µg/disc [2] of 10 mm and a zone of inhibition at 500 µg/disc [3] of 10 mm. It also gave a zone of inhibition at 500 µg/disc [4] of 9 mm, a zone of inhibition at 500 µg/disc [5] of 11 mm and a zone of inhibition at 500 µg/disc [6] of 9 mm.

`CC(C)Cc1ccc(C(C)c2nnc(SCc3cn(CC(=O)Nc4ccc(Cl)cc4)nn3)o2)cc1` (racemic) showed a zone of inhibition at 500 µg/disc [1] of 11 mm, a zone of inhibition at 500 µg/disc [2] of 16 mm and a zone of inhibition at 500 µg/disc [3] of 15 mm. For the same compound, the zone of inhibition at 500 µg/disc [4] was 14 mm, the zone of inhibition at 500 µg/disc [5] was 15 mm and the zone of inhibition at 500 µg/disc [6] was 15 mm.

In the case of `NCC[C@H](O)C(=O)N[C@@H]1C[C@H](N)[C@@H](O[C@H]2O[C@H](CN)[C@@H](O)[C@H](O)[C@H]2O)[C@H](O)[C@H]1O[C@H]1O[C@H](CO)[C@@H](O)[C@H](N)[C@H]1O` [AMIKACIN], the zone of inhibition at 50 µg/disc [7] is reported as 23 mm, the zone of inhibition at 50 µg/disc [8] is reported as 22 mm and the zone of inhibition at 50 µg/disc [9] is reported as 20 mm. It also gave a zone of inhibition at 50 µg/disc [10] of 23 mm.
